Where two headings read alike, the source gives them in different places. Non-standard residues stand in square brackets, D forms with d. No end group written: not given here.

In one assay the target is T1, GPIb-vWf interaction (Homo sapiens, UniProt P07359).
T1 construct: Platelet rich plasma (PRP) was prepared from whole blood by centrifugation; endogenous in cells
The assay can be described thus: Flow cytometry inhibition of vWf binding to ristocetin-activated platelets in PRP. Type of assay: cell-based. How it is done:
(§1) In order to prepare human platelets for testing, as approved by Canadian Blood Services' Ethics Board, samples of whole blood were drawn from healthy, consenting donors into 2.7-4.0 mL citrated tubes (BD, USA). Platelet rich plasma (PRP) was prepared from whole blood by centrifugation in a Beckman (CS-6R) bench-top centrifuge (r=203.57 mm, Beckman Coulter, USA) 164×g for 15 minutes. PRP from a number of unrelated donors were evaluated on an Adiva 120 Hematology Analyzer (Bayer, Canada) and standardized to a concentration of 300×10^9 platelets/L in HEPES buffered saline (HBS, 10 mM HEPES, 150 mM NaCl, pH 7.4).
Thereafter the samples were diluted and fixed with 1.0 mL 0.2% formolsaline (0.2% formaldehyde, 150 mM NaCl, pH 7.20) before analysis on a FACS Canto flow cytometer (BD, USA).
The effect of native HPG, free peptides, and peptide-conjugated HPG on activated platelets using modifications of the above assay systems was also examined. Platelets were treated with either 5 μL 4.2 mg/mL ristocetin (Chrono-Log, USA) or 100 U thrombin (T6884, Sigma-Aldrich, Canada) with 5 μL GPRP fibrin inhibitor (G5779, Sigma-Aldrich, Canada) dissolved in HBS. […] Controls included incubation with mouse IgG-FITC/IgG-PE (Beckman-Coulter, Canada) of the same isotype, and/or omitting the conjugate.
A general note: A flow cytometer gives signals particle by particle.

In a further assay the test system is GPIIbIIIa. In words: Ristocetin-mediated GPIIbIIIa activation probed by PAC-1 antibody, flow cytometry. The settings on record: at IC50 concentration, 60 minutes, PAC-1, p<0.05. The format is cell-based, human. How it is done:
To show inhibition of the GPIb-vWf interaction in PRP, activation had to target the plasma component, specifically vWf, by ristocetin, rather than the consequences of platelet activators such as thrombin or ADP. Ristocetin mediated GPIb signaling was detected through GPIIbIIIa activation and flow cytometry. 5 μL resting PRP were incubated with […] (SEQ ID NO:8) or L100 at their respective IC50 concentrations for 60 minutes and 5 μL 4.2 mg/mL ristocetin was used to induce platelet activation. Consequent GPIIbIIIa activation was probed via a monoclonal FITC-conjugated PAC-1 antibody to the active conformation of GPIIbIIIa (BD, Canada).

Assay [1] relates to vWf binding to resting platelets. In words: Flow cytometry of vWf binding to resting platelets. The format is cell-based, human. How it is done: as §1
(§2) 40 μL aliquots of HBS were mixed with 5 μL PRP and 5 μL of the material to be tested: 500 kDa native HPG; free peptides; or peptide-conjugated HPG at 1.0×10^−3 M to 1.0×10^−9 M. After 40 minutes of incubation at ambient temperature, 5 μL 0.01 mg/mL FITC-conjugated polyclonal sheep anti-human vWf IgG (Abcam, USA) or 5 μL of 2 mg/mL PE-conjugated monoclonal mouse anti-human CD62 IgG (Beckman-Coulter, Canada) was added and incubation was continued in the dark for 30 min. Thereafter the samples were diluted and fixed with 1.0 mL 0.2% formolsaline (0.2% formaldehyde, 150 mM NaCl, pH 7.20) before analysis on a FACS Canto flow cytometer (BD, USA).
(§3) The effect of native HPG, free peptides, and peptide-conjugated HPG on activated platelets using modifications of the above assay systems was also examined. Platelets were treated with either 5 μL 4.2 mg/mL ristocetin (Chrono-Log, USA) or 100 U thrombin (T6884, Sigma-Aldrich, Canada) with 5 μL GPRP fibrin inhibitor (G5779, Sigma-Aldrich, Canada) dissolved in HBS. This was done to determine whether the peptides and the peptide-conjugates can mitigate vWf and thrombin mediated platelet effects. Controls included incubation with mouse IgG-FITC/IgG-PE (Beckman-Coulter, Canada) of the same isotype, and/or omitting the conjugate. As a result, native HPG, free peptides, and peptide-conjugated HPG neither did they increase vWf binding to resting platelets (Table 5) or they could trigger platelet activation.

Assay [2] concerns CD62/P-selectin on platelet surfaces. The assay can be described thus: Flow cytometry of surface CD62 expression on platelets. Type of assay: cell-based, human. To be noted: for Surface CD62 Expression, Activated Platelets: thrombin-activated platelets. How it is done: as §1, §2
as §3, with “activation. […]” for “activation.”

The next assay concerns platelets. In words: Aggregometry, % aggregation on activation. The format is cell-based, human. To be noted: ristocetin activation. Set-up: concentration or dose not given beside the values. How it is done: as §1, §3
The inhibition of platelet agglutination by vWf was observed both by light microscopy and lumiaggregometry (Table 5). No clumping was seen when resting platelets were incubated with free peptides, native HPG, or peptide-conjugated HPG.

In a further assay the target is T2, fibrinogen (Homo sapiens, UniProt P02671+P02675+P02679).
T2 sequence (P02671 20-629 limits assumed): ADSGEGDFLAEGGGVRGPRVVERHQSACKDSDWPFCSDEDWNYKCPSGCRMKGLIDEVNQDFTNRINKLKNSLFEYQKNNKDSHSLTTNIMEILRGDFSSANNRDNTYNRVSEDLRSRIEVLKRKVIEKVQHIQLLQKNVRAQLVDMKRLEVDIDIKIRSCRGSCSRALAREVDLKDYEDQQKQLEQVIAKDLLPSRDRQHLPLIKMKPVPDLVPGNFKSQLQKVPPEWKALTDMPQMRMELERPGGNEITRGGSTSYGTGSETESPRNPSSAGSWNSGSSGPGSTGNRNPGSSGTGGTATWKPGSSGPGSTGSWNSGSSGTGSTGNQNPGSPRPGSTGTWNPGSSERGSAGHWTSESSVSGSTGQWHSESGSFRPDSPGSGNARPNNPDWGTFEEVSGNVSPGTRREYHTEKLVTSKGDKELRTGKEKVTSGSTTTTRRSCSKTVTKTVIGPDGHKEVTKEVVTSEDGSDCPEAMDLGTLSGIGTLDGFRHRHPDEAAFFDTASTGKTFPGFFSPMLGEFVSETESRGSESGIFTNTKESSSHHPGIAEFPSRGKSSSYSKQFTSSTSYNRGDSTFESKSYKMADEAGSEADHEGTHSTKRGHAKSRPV
T2 sequence (P02675 31-491): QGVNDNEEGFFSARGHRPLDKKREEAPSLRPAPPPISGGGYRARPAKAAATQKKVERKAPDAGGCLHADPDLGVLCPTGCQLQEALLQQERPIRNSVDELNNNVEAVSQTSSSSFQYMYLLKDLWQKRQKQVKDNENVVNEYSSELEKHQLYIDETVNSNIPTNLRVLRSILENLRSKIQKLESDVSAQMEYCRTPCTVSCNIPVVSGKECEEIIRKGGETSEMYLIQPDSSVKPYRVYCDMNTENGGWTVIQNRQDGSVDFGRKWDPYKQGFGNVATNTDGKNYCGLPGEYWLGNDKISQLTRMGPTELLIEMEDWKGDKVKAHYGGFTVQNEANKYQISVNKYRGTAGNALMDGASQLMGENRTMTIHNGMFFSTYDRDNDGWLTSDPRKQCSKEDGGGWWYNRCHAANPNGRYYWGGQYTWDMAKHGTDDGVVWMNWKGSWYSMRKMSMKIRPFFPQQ
T2 sequence (P02679 27-433 limits assumed): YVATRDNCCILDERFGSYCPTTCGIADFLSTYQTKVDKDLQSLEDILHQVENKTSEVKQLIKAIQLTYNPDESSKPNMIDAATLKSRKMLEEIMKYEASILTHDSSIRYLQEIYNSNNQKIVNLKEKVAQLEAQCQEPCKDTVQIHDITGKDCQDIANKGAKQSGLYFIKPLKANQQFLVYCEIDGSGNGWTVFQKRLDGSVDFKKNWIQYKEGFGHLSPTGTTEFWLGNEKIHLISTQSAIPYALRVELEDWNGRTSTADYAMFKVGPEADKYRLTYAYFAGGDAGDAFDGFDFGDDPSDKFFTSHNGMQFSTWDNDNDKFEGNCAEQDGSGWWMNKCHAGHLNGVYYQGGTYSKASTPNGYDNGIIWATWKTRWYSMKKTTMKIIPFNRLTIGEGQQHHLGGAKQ
The assay can be described thus: Binding of D-amino acid-containing sequences to fibrinogen. From the text: These peptides can be used to pull/capture fibrinogen from a solution as well as to inhibit the interaction between fibrinogen and its cognate receptor(s).

As for CGGGGGGSHAYIGLKDR [L-pep], on GPIb-vWf interaction, the IC50 came out at 48 µM. Further, the “GPIIbIIIa activation upon ristocetin stimulation” value in the assay on GPIIbIIIa is recorded as “significantly attenuated”. For the same substance, the “vWf Binding, Resting Platelets” value in assay [1] is on record as 24 ± 4′. For the same substance, in assay [2], the “Surface CD62 Expression, Resting Platelets” value amounted to 18 ± 1 and the “Surface CD62 Expression, Activated Platelets” value is given as 72 ± 8″. Besides, in the assay on platelets, the “Aggregometry % Aggregation on Activation” value worked out at 5 ± 5%.
Regarding “FKWSWEWQGQEAYYD ([dF][dK][dW][dS][dW][dE][dW][dQ]G[dQ][dE][dA][dY][dY][dD])”, in the assay with fibrinogen, the “ability to bind to fibrinogen” value is listed as “bind to fibrinogen”.
The same measure, in the same setting: as for “FRIYYVYTTSQQDSC ([dF][dR][dI][dY][dY][dV][dY][dT][dT][dS][dQ][dQ][dD][dS][dC])”, the entry is “bind to fibrinogen”; as for “KYQCYAPAHPSYVNY (also: D-amino acids, places not given here)”, “bind to fibrinogen”.
Consider “L100: HPG 500 kDa conjugate with about 100 L-peptides per HPG molecule (CGGGGGGSHAYIGLKDR; also: conjugated to HPG 500 kDa, about 100 L-peptides per HPG molecule, site not given here)”, for which the “inhibition of vWf binding to platelets (in words)” value with GPIb-vWf interaction is given as “effective inhibitors”. In the assay with GPIb-vWf interaction (expressed as peptide concentration, read-out: Peptide Concentration at Ic50), the IC50 worked out at 210 µM. In addition, the IC50 with GPIb-vWf interaction (inhibition of platelet-vWf binding, molar concentration of peptide or conjugate, read-out: Ic50) is 1.1 µM. Moreover, the “GPIIbIIIa activation upon ristocetin stimulation” value in the assay on GPIIbIIIa is “significantly attenuated”. In addition, the “vWf Binding, Resting Platelets” value in assay [1] is 23 ± 2′. Also, in assay [2], the “Surface CD62 Expression, Resting Platelets” value turned out to be 20 ± 3 and the “Surface CD62 Expression, Activated Platelets” value was 71 ± 5″.
With “SMTSMCYLIGAPKYK (also: D-amino acids, places not given here)”, the “ability to bind to fibrinogen” value with fibrinogen is reported as “bind to fibrinogen”.

Values taken from patent US7919465B2, “Peptide mimotopes that inhibits interaction between a platelet receptor and a platelet receptor ligand” (priority 2006, dated 2011).
